Experimental data taken from patent US4303785A, “Antitumor anthracycline antibiotics” (priority 1978, dated 1981).
Values after ≈ are worked out from the molar mass of the structure shown. Where two headings read alike, the source gives them in different places.

Tests used:
[1] = test system: Staph. aureus FDA 209P; experiment: Minimum inhibitory concentration, broth dilution method (Table 3); assay type: cell-based; details: for MIC: Staphylococcus aureus, FDA209P
Excerpt: (§1) To illustrate such activity, minimum inhibitory concentrations (as determined by the broth dilution method) of representative compounds are shown in Table 3.

[2] = test system: Micrococcus flavus FDA 16; experiment: as above; assay type: cell-based; details: for MIC: Micrococcus flavus, FDA16, Micrococcus flavus FDA 16
Excerpt: as §1

[3] = test system: Bacillus cereus ATCC 10702; experiment: as above; assay type: cell-based; details: for MIC: ATCC10702
Excerpt: as §1

[4] = test system: Staph. aureus Smith; experiment: as above; assay type: cell-based
Excerpt: as §1

[5] = test system: Bacillus subtillis NRRLB-558; experiment: as above; assay type: cell-based; details: for MIC: Bacillus, NRRLB558, Bacillus subtillis NRRLB-558
Excerpt: as §1

[6] = test system: Sarcina lutea PCI 1001; experiment: as above; assay type: cell-based; details: for MIC: Micrococcus luteus, PCI1001
Excerpt: as §1

[7] = test system: Corynebacterium bovis 1810; experiment: as above; assay type: cell-based
Excerpt: as §1

[8] = test system: Escherichia coli NIHJ; experiment: as above; assay type: cell-based
Excerpt: as §1

[9] = test system: Mycobacterium smegmatis ATCC 607; experiment: as above; assay type: cell-based; details: for MIC: Mycolicibacterium smegmatis, ATCC607
Excerpt: as §1

[10] = test system: Candida albicans; experiment: as above; assay type: cell-based
Excerpt: as §1

[11] = test system: Pseudomonas aeruginosa A3; experiment: as above; assay type: cell-based; details: for MIC: Pseudomonas aeruginosa, A3, Pseudomonas aeruginosa A3
Excerpt: as §1

[12] = test system: Bacillus megaterium APF; experiment: as above; assay type: cell-based
Excerpt: as §1

[13] = test system: L1210 leukemia; experiment: Antitumor activity in BDF1 mice inoculated with L1210 leukemia cells (Table 6); assay type: in vivo; details: once daily for 10 days
Excerpt: As an example, BDF1 mice were inoculated intraperitoneally with 1×10^6 cells/mouse of L1210 leukemia cells.

[14] = test system: L1210 leukemia cells; experiment: Growth inhibitory effect on L1210 cells in culture (Table 4); assay type: cell-based; details: for inhibition at 0.1 µg/mL / inhibition at 0.5 µg/mL: Mus musculus, read-out: Inhibition Rate (growth); for inhibition at 0.1 µg/mL: L1210, 0.1 μg./ml.; for inhibition at 0.5 µg/mL: L1210, 0.5 μg./ml.
Description: For example, L1210 cells (5×10^4 cells/ml.) were inoculated in RPMI 1640 medium (Roswell Park Memorial Institute 1640) containing 20% calf serum and cultivated at 37° C. in the presence of 0.1 and 0.5 μg./ml. of the test compounds in a CO2 incubator.

[15] = test system: L1210 cells; experiment: Inhibition of 14C-uridine and 14C-thymidine incorporation (nucleic acid synthesis) in L1210 cells in culture (Table 5); assay type: cell-based; details: 60 min. at 37° C.; for IC50: Mus musculus, L1210, 1 h
Description: The effect of the tetrahydropyranyl ether derivatives of formula I' on nucleic acid synthesis was examined as follows: […]
1×10^5 cells/ml. of L1210 cells were suspended in RPMI medium containing 10% calf serum, pre-cultivated at 37° C. for 1 to 2 hours in a CO2 incubator and then the test compounds were added to the medium at various concentrations. After 15 min. of incubation, ^14 C-uridine (0.05 μCi/ml.) or ^14 C-thymidine (0.05 μCi/ml.) was added and incubated at 37° C. for 60 min. Trichloroacetic acid (TCA) (10%) was added to the incubation medium to stop the reaction and precipitate the acid-insoluble materials, and then the precipitate was washed three times with 5 to 10% […]. The radioactivity was measured and expressed as 50% inhibition concentration of incorporation.

[16] = test system: NADPH-cytochrome P450 reductase; experiment: Stability on rat hepatic NADPH-cytochrome P450 reductase: 7-deoxyaglycone formed (Table 7); assay type: in vitro ADME; details: 25° C., 25 min., nitrogen; substrate 0.1 mM, NADPH 0.2 mM, enzyme 4.6 μg./ml, pH 8.0
Description: C. The marked antitumor effects seen from A and B above were confirmed by the stability of the test compounds on the inactivation by hepatic NADPH-cytochrome P450 reductase. Specifically, NADPH-cytochrome P450 reductase purified from rat liver homogenate was incubated with the tetrahydropyranyl ether derivatives of formula I' at 25° C. for 25 min. in nitrogen gas phase, and the incubation product formed, 7-deoxyaglycone, was determined as shown in Table 7.

[17] = thymidine, read-out: 50% Inhibition Concentration of 14C-Thymidine Incorporation
[18] = uridine, read-out: 50% Inhibition Concentration of 14C-Uridine Incorporation

SMILES	MIC [1] [µg/mL]	MIC [2] [µg/mL]	MIC [3] [µg/mL]	MIC [5] [µg/mL]	MIC [6] [µg/mL]	MIC [7] [µg/mL]	MIC [8] [µg/mL]	MIC [9] [µg/mL]	MIC [10] [µg/mL]	Antitumor Activity (T/C, prolongation rate of survival day) ([13]; 0.15 mg./kg./day i.p.) [%]	Antitumor Activity (T/C, prolongation rate of survival day) ([13]; 0.3 mg./kg./day i.p.) [%]	Antitumor Activity (T/C, prolongation rate of survival day) ([13]; 0.6 mg./kg./day i.p.) [%]	Antitumor Activity (T/C, prolongation rate of survival day) ([13]; 1.25 mg./kg./day i.p.) [%]	Antitumor Activity (T/C, prolongation rate of survival day) ([13]; 2.5 mg./kg./day i.p.) [%]	inhibition at 0.1 µg/mL [14] [%]	inhibition at 0.5 µg/mL [14] [%]	IC50 [15, 17] [µg/mL]	IC50 [15, 18] [µg/mL]	Product (7-Deoxyaglycone) [16] [nmoles/tube]	Antitumor Activity (T/C, prolongation rate of survival day) ([13]; 5 mg./kg./day i.p.) [%]	further results
COc1cccc2c1C(=O)c1c(O)c3c(c(O)c1C2=O)C[C@@](O)(C(=O)CO)C[C@@H]3O[C@H]1C[C@H](N)[C@H](OC2CCCCO2)[C@H](C)O1 (single isomer, unassigned; isomer a) [4'-O-PAa, 4'-O-tetrahydropyranyl adriamycin (isomer a)]	6.25 (≈ 9.96 µM)	3.12 (≈ 4.97 µM)	6.25 (≈ 9.96 µM)	3.12 (≈ 4.97 µM)	0.78 (≈ 1.24 µM)	3.12 (≈ 4.97 µM)	> 100	100 (≈ 159 µM)	> 100	127	120	187	180	173	65.9	81.1	0.37 (≈ 0.59 µM)	0.2 (≈ 0.319 µM)			MIC ([4]; Staphylococcus aureus): 6.25 µg/mL (≈ 9.96 µM); MIC [11]: > 100 µg/mL; MIC ([12]; Priestia megaterium): 3.12 µg/mL (≈ 4.97 µM)
COc1cccc2c1C(=O)c1c(O)c3c(c(O)c1C2=O)C[C@@](O)(C(=O)COC1CCCCO1)C[C@@H]3O[C@H]1C[C@H](N)[C@H](OC2CCCCO2)[C@H](C)O1 (single isomer, unassigned; isomer a) [4',14-di-O-PAa, 4',14-bis(O-tetrahydropyranyl)adriamycin (isomer a)]										96	103	96	109	115	37.5	80.8	0.55 (≈ 0.773 µM)	0.23 (≈ 0.323 µM)	13.1	154	
COc1cccc2c1C(=O)c1c(O)c3c(c(O)c1C2=O)C[C@@](O)(C(=O)CO)C[C@@H]3O[C@H]1C[C@H](N)[C@H](OC2CCCCO2)[C@H](C)O1 (single isomer, unassigned; isomer b) [4'-O-PAb, 4'-O-tetrahydropyranyl adriamycin (isomer b)]										113	160	293	> 373	> 360						> 375	Minimum Inhibitory Concentration (MIC) [1]: 6.25 µg/mL; Minimum Inhibitory Concentration (MIC) ([2]; Micrococcus flavus FDA 16): 3.12 µg/mL; Minimum Inhibitory Concentration (MIC) [3]: 6.25 µg/mL; Minimum Inhibitory Concentration (MIC) [4]: 6.25 µg/mL; Minimum Inhibitory Concentration (MIC) ([5]; Bacillus subtillis NRRLB-558): 3.12 µg/mL; Minimum Inhibitory Concentration (MIC) [6]: 0.78 µg/mL; Minimum Inhibitory Concentration (MIC) [7]: 3.12 µg/mL; Minimum Inhibitory Concentration (MIC) [8]: > 100 µg/mL; Minimum Inhibitory Concentration (MIC) [9]: 100 µg/mL; Minimum Inhibitory Concentration (MIC) [10]: > 50 µg/mL; Minimum Inhibitory Concentration (MIC) ([11]; Pseudomonas aeruginosa A3): > 100 µg/mL; Minimum Inhibitory Concentration (MIC) [12]: 3.12 µg/mL; Inhibition Rate (growth) ([14]; 0.1 μg./ml.): 78.1%; Inhibition Rate (growth) ([14]; 0.5 μg./ml.): 92.9%; 50% Inhibition Concentration of 14C-Thymidine Incorporation ([15]; thymidine): 0.50 µg/mL; 50% Inhibition Concentration of 14C-Uridine Incorporation ([15]; uridine): 0.24 µg/mL
COc1cccc2c1C(=O)c1c(O)c3c(c(O)c1C2=O)C[C@@](O)(C(=O)COC1CCCCO1)C[C@@H]3O[C@H]1C[C@H](N)[C@H](OC2CCCCO2)[C@H](C)O1 (single isomer, unassigned; isomer b) [4',14-di-O-PAb, 4',14-bis(O-tetrahydropyranyl)adriamycin (isomer b)]										115	96	103	103	109					15.8	161	Inhibition Rate (growth) ([14]; 0.1 μg./ml.): 25.5%; Inhibition Rate (growth) ([14]; 0.5 μg./ml.): 72.1%; 50% Inhibition Concentration of 14C-Thymidine Incorporation ([15]; thymidine): 0.97 µg/mL; 50% Inhibition Concentration of 14C-Uridine Incorporation ([15]; uridine): 0.24 µg/mL
COc1cccc2c1C(=O)c1c(O)c3c(c(O)c1C2=O)C[C@@](O)(C(=O)COC1CCCCO1)C[C@@H]3O[C@H]1C[C@H](N)[C@H](O)[C@H](C)O1 (stereo partly drawn) [Example 14-O-PA, 14-O-tetrahydropyranyl adriamycin]										103	110	113	126	130	7.6	58.3	0.42 (≈ 0.669 µM)	0.17 (≈ 0.271 µM)	18.4	142	
COc1cccc2c1C(=O)c1c(O)c3c(c(O)c1C2=O)C[C@@](O)(C(C)=O)C[C@@H]3O[C@H]1C[C@H](N)[C@H](OC2CCCCO2)[C@H](C)O1 (single isomer, unassigned; isomer a) [4'-O-PDa, 4'-O-tetrahydropyranyl daunomycin (isomer a)]	6.25 (≈ 10.2 µM)	0.78 (≈ 1.28 µM)	6.25 (≈ 10.2 µM)	3.12 (≈ 5.1 µM)	0.39 (≈ 0.638 µM)	0.78 (≈ 1.28 µM)	> 100	6.25 (≈ 10.2 µM)	> 50	90	96	115	122	> 320	79.2	95	0.28 (≈ 0.458 µM)	0.13 (≈ 0.213 µM)	37.3	> 320	Minimum Inhibitory Concentration (MIC) [4]: 12.5 µg/mL; MIC [11]: > 100 µg/mL; Minimum Inhibitory Concentration (MIC) [12]: 6.25 µg/mL
